# Data taken from patent publication US11312721B2 (priority 2015, dated 2022).
# Entries after “also recorded” stand apart in the source; their conditions may differ. Read-outs that look alike come from different tables or passages of the source.
# How the values were obtained:
# aged-impaired (AI) rats = assay: Radial Arm Maze (RAM) behavioral task, spatial memory retention; format: in vivo, rat; settings: 3 mg/kg ip, two-hour delay RAM
# Procedure: The effects of methyl 3,5-diphenylpyridazine-4-carboxylate on the in vivo spatial memory retention of aged-impaired (AI) rats were assessed in a Radial Arm Maze (RAM) behavioral task using vehicle control and four different dosage levels of methyl 3,5-diphenylpyridazine-4-carboxylate ([…]). RAM behavioral tasks were performed on eight AI rats. All five treatment conditions (vehicle and four dosage levels) were tested on all eight rats.
# The RAM apparatus used consisted of eight equidistantly-spaced arms. An elevated maze arm (7 cm width×75 cm length) projected from each facet of an octagonal center platform (30 cm diameter, 51.5 cm height). Clear side walls on the arms were 10 cm high and were angled at […] to form a trough. A food well (4 cm diameter, 2 cm deep) was located at the distal end of each arm. Froot Loops™ (Kellogg Company) were used as rewards. Blocks constructed of Plexiglas™ (30 cm height×12 cm width) could be positioned to prevent entry to any arm. Numerous extra maze cues surrounding the apparatus were also provided.
# The AI rats were initially subjected to a pre-training test (Chappell et al. Neuropharmacology 37: 481-487, 1998). The pre-training test consisted of a habituation phase (4 days), a training phase on the standard win-shift task (18 days) and another training phase (14 days) in which a brief delay was imposed between presentation of a subset of arms designated by the experimenter (e.g., 5 arms available and 3 arms blocked) and completion of the eight-arm win-shift task (i.e., with all eight arms available).
# In the habituation phase, rats were familiarized to the maze for an 8-minute session on four consecutive days. In each of these sessions, food rewards were scattered on the RAM, initially on the center platform and arms and then progressively confined to the arms. After this habituation phase, a standard training protocol was used, in which a food pellet was located at the end of each arm. Rats received one trial each day for 18 days. Each daily trial terminated when all eight food pellets had been obtained or when either 16 choices were made or 15 minutes had elapsed. After completion of this training phase, a second training phase was carried out in which the memory demand was increased by imposing a brief delay during the trial. At the beginning of each trial, three arms of the eight-arm maze were blocked. Rats were allowed to obtain food on the five arms to which access was permitted during this initial “information phase” of the trial. Rats were then removed from the maze for 60 seconds, during which time the barriers on the maze were removed, thus allowing access to all eight arms. Rats were then placed back onto the center platform and allowed to obtain the remaining food rewards during this “retention test” phase of the trial. […]
# α5-containing GABAA R = α5-containing GABAA R (Homo sapiens, UniProt P18507+P31644); settings: (EC20); cited from earlier work
# [1] = format: in vivo, Long Evans rats; settings: i.v.
# Procedure: (§1) Food and water were available ad libitum.
# For plasma exposures, blood samples were centrifuged at 14000 rpm for 16 minutes. After centrifuging, 50 ul of supernatant (plasma) from each sample was added to 200 μl of acetonitrile plus 0.1% formic acid. […] Samples were sonicated for 5 minutes in an ultrasonic water bath, followed by centrifugation for 30 minutes, at 16000 RPM. 100 ul of supernatant was removed from each sample vial and placed in a new glass auto sample vial, followed by the addition of 300 μl of sterile water (pH 6.5).
# Additional studies were conducted in aged Long-Evans rats in order to determine the exposures at the behaviorally relevant doses in the cognition studies. Exposure in young Long-Evans rats was also determined to bridge with the receptor occupancy studies that were conducted in young Long-Evans rats. Exposures in young and aged Long-Evans rats were relatively similar (Table 4, FIG. 4).
# GABAA α5 receptor = target: T1, GABAA α5 receptor (Rattus norvegicus, UniProt P19969); assay: GABAA α5 receptor occupancy in vivo with Ro 15-4513 tracer; set-up: species or system Long Evans rats
# T1 construct: from tissue
# Text: as §1
# T1 sequence (P19969 32-464 limits assumed): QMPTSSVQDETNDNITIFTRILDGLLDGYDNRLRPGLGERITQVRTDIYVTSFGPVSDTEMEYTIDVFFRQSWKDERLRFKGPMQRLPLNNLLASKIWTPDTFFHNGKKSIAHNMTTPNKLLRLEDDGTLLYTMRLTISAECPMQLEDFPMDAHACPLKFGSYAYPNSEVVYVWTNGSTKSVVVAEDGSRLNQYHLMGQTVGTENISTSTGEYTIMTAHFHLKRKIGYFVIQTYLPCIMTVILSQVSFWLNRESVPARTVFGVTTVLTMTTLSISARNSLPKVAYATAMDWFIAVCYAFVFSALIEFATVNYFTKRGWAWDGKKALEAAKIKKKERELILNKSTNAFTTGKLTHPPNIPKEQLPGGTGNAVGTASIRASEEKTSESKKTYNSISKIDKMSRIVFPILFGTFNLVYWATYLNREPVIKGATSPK
# Chain of α5-containing GABAA R (P31644 32-462): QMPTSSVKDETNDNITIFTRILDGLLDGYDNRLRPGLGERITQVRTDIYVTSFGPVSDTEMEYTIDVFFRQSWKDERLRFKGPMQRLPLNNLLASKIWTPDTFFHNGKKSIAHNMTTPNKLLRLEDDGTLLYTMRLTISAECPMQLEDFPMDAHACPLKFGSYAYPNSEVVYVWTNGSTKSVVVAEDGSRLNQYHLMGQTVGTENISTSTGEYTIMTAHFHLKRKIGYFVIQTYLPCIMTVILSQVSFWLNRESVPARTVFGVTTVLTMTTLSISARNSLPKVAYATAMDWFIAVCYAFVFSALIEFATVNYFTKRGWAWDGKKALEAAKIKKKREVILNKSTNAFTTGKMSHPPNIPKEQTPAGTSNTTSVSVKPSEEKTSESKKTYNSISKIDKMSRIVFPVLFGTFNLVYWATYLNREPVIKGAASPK
# Chain of α5-containing GABAA R (P28472 26-473 partner): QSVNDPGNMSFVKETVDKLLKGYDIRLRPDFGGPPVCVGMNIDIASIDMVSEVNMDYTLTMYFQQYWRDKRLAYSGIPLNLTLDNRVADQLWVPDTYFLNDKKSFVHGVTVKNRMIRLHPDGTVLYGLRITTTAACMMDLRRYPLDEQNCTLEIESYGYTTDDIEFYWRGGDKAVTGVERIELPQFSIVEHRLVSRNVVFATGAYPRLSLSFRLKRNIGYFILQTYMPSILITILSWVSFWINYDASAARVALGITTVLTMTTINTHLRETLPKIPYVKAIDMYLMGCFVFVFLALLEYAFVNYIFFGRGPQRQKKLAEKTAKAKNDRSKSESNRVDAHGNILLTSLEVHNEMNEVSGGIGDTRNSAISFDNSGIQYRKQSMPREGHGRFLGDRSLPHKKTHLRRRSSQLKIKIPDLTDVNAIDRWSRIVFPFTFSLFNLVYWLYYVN
# Chain of α5-containing GABAA R (P18507 40-475): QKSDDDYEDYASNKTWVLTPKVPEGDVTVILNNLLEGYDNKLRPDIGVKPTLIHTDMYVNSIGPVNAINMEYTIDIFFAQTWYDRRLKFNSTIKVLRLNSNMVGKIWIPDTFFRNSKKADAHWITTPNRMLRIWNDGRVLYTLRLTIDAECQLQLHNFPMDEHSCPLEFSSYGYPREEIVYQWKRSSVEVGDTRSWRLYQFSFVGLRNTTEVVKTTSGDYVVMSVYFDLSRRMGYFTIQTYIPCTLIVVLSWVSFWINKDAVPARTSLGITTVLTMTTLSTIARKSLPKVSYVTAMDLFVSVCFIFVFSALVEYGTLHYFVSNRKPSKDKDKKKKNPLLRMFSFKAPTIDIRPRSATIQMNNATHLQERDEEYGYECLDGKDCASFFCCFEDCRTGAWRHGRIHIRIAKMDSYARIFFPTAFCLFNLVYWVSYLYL
compound,measurement,setting,value
"COC(=O)c1c(-c2ccccc2)cnnc1-c1ccccc1 [Methyl 3,5-diphenylpyridazine-4-carboxylate]",average no. of errors ± SEM in retention test,aged-impaired (AI) rats; AI rats,1.31±0.40
same,memory performance relative to vehicle control,"aged-impaired (AI) rats; t(7)=4.233, p=0.004",significantly improved memory performance
same,α5 in vitro efficacy,α5-containing GABAA R,+27
same,fold increase in hippocampal exposure,[1]; dose from 0.1 to 1 mg/kg,12 fold
same,fold increase in hippocampal exposure,[1]; dose from 1 to 10 mg/kg,~5 fold
same,fold increase in plasma exposure,[1]; dose from 1 to 10 mg/kg,12 fold
same,effect on Ro 15-4513 binding in hippocampus and cerebellum,"GABAA α5 receptor; 0.01-10 mg/kg, i.v.","dose-dependently reduced Ro 15-4513 binding in hippocampus, without affecting cerebellum levels of Ro 15-4513; also recorded: blocked the binding of Ro154513 in the hippocampus but did not affect binding of Ro15413 in the cerebellum"
same,RO required for cognitive efficacy in this model,"GABAA α5 receptor; from exposure in aged rats at 3 mg/kg, i.p.",30-40%
same,GABAA α5 receptors occupied at behaviorally active exposures,"GABAA α5 receptor; hippocampus, exposures behaviorally active in aged-impaired rats",about 32%
same,"ED50 of receptor occupancy, ratio method","GABAA α5 receptor; i.v., hippocampus/cerebellum ratio method",1.8 mg/kg
same,receptor occupancy at 1 mg/kg,"GABAA α5 receptor; rat, iv, 1 mg/kg, i.v., depending on method used to determine RO, read-out: receptor occupancy at an exposure of 180 ng/g in hippocampus",32 to 39%
same,receptor occupancy at 10 mg/kg,"GABAA α5 receptor; rat, iv, 10 mg/kg",> 90%
same,ED50,"GABAA α5 receptor; rat, iv, read-out: ED50 of receptor occupancy, using L-755,608 to define occupancy",1.1 mg/kg
